In US6495588B2, “Scytonemin and methods of using thereof” (The Regents of the University of California, priority 2000, dated 2002):
Like-named read-outs stand apart in the source and are kept apart here.

How the values were obtained:
[1] = molecular target: T1, CDK1/cyclinB1 (Homo sapiens, UniProt P06493); assay: CDK1/cyclinB histone H1 phosphorylation assay; type: biochemical; settings: 0.1 μM ATP, histone H1 substrate
T1 construct: made in house
Experimental: To determine the effect of SCY on CDK1/cyclinB1 kinase activity, the following assay was conducted. Baculovirus vectors expressing CDK1 and cyclinB1, obtained from Dr. David Morgan of the University of California San Francisco, were expressed and purified by the method described in Desai, et al. (1992) Mol. Cell Biol. 3:571-582, which is herein incorporated by reference, to 80% purity as determined by SDS-PAGE analysis and Coomassie Blue staining. CDK1/cyclinB1 kinase activity was analyzed in a 96-well flashplate assay using 2.0 μg/well bovine histone H1 as a substrate. Reactions were run in 50 μl with 0.25 μg of CDK1/cyclinB1 complex, in reaction buffer (50 mM HEPES, pH 7.4, 10 mM MgCl2, 0.1 μM ATP, 1 mM DTT and 0.5 μCi of [γ^33-P] ATP (final reaction concentrations)), and SCY (1 nM to 10 μM final reaction concentration). The positive control used was […] hymenialdisine (final concentration) in a final vehicle concentration of 1% DMSO.
Reactions were initiated with the addition of ATP and allowed to proceed for 10 minutes at room temperature. The reactions were stopped by washing the plate five times with 300 μl/well of PBS. The plate was then counted on a Packard Top-Count.

[2] = molecular target: T2, GST-PLK1 (Homo sapiens, UniProt P53350); assay: GST-Plk kinase activity kinetic assay (phosphorylation of GST-cdc25C); type: biochemical; settings: for reduction of GST-PLK1 activity: preincubation 0-45 minutes; for Ki: 10-25 μM ATP, 2, 4, 6 μM SCY
T2 construct: made in house
T2 sequence (P53350 whole entry): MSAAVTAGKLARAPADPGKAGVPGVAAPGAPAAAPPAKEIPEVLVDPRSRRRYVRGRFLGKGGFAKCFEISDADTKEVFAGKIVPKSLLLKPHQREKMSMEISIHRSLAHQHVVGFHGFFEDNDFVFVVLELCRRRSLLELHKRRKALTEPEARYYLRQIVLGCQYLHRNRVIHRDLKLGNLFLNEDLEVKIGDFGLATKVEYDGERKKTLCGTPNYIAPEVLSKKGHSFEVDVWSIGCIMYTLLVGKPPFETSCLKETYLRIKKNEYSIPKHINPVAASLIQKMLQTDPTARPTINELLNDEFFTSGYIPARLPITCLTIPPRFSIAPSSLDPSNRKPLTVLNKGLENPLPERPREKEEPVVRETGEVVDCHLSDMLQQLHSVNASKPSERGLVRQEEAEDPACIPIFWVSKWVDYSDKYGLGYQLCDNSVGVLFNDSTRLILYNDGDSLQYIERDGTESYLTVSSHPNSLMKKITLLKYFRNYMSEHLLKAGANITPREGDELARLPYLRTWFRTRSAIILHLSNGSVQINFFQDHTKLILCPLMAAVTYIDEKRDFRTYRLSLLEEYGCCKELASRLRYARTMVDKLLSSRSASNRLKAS
Experimental: GST-PLK1, and GST-cdc25C were synthesized as described in Roshak et al. (2000), which is herein incorporated by reference. GST-PLK1 and GST-cdc25C were purified to 20% and 60% purity as determined by SDS-PAGE analysis and Coomassie Blue staining. The remaining impurities were determined to be free GST.
Kinase reactions comprised 350 nM GST-cdc25C, 0.5 μCi [^33P]-γATP (NEN, Cambridge, Mass.), 10 μM unlabelled ATP (Sigma, St. Louis, Mo.), 20 nM GST-PLK1 in kinase reaction buffer comprising 20 mM HEPES (pH 7.4), 50 mM KCl, 10 mM MgCl2, 1 mM EGTA, 0.5 mM DTT. Enzyme and substrates were diluted individually in kinase buffer and the PLK1 solution was pre-activated by incubating at 37° C. for 1 hour prior to its addition to the assay as described in Roshak et al. (2000).
50 μl reactions were conducted in 96 well polypropylene plates. First, 1 nM to 10 μM SCY dissolved in 100% DMSO was added, followed by the addition of enzyme and substrate to give a final concentration of 4% DMSO. The reactions were initiated by the addition of ATP. The reactions progressed for 60 minutes at 37° C., and were then stopped with 25 mM EDTA and 1 mM unlabeled ATP. The samples were transferred to 96 well 0.45 μm millipore filtration plates (Millipore, Bedford, Mass.), the proteins were precipitated with a 10% TCA, 5% sodium pyrophosphate solution (TCA-NaPP), and the plates were filtered using a Millipore microplate filtration unit (Millipore, Bedford, Mass.). The plates were washed twice with the TCA-NaPP solution, twice with 75 mM phosphoric acid, and twice with PBS. After drying at room temperature, scintillation fluid was added to the plate, and [^33P]-γATP incorporation was measured on a Packard Top-Count.
Analysis by autoradiography was performed as described in Roshak et al. (2000). Briefly, GST-PLK1 (20 nM/assay), […], 1 μCi [^32P]-γATP, and 350 nM GST-cdc25C were incubated in microcentrifuge tubes (50 μl/assay) for 60 minutes at 37° C. in the presence of 1 to 10 μM SCY and 10 μM hymenialdisine. The reactions were terminated with 25 mM EDTA, separated by SDS-PAGE and GST-cdc25C phosphorylation was visualized using Imagequest (Molecular Dynamics, Sunnyvale, Calif.). 10 μM hymenialdisine served as a positive control for each assay described above.
To determine whether SCY was acting as and ATP analogue, ATP competition assays were conducted as described above in the presence of increasing concentrations, 10, 15, 20, and 25 μM, of unlabeled ATP and three concentrations of SCY, 2, 4, and 6 μM SCY. The results were plotted using the Grafit statistical analysis program.
To ascertain if inhibition of GST-PLK1, activity by SCY is time dependent, 3 μM and 10 μM SCY were pre-incubated with both enzyme and substrate for 0, 15, 30, and 45 minutes at room temperature. At the end of the pre-incubation period, ATP was added to initiate the activity assay. […] GST-PLK1, activity was reduced by about 58% and about 93% after preincubation with 3 μM and 10 μM SCY, respectively, which is consistent with the levels shown in FIG. 3.

T1 sequence (P06493 whole entry): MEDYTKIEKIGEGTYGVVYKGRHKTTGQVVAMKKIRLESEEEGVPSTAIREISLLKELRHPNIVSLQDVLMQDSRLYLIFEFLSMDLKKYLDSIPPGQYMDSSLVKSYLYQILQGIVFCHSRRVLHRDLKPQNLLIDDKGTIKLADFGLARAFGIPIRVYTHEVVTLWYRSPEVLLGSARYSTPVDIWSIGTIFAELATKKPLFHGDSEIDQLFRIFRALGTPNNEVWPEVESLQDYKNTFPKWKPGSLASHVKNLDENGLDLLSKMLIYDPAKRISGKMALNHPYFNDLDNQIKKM
T1 sequence (P14635 whole entry partner): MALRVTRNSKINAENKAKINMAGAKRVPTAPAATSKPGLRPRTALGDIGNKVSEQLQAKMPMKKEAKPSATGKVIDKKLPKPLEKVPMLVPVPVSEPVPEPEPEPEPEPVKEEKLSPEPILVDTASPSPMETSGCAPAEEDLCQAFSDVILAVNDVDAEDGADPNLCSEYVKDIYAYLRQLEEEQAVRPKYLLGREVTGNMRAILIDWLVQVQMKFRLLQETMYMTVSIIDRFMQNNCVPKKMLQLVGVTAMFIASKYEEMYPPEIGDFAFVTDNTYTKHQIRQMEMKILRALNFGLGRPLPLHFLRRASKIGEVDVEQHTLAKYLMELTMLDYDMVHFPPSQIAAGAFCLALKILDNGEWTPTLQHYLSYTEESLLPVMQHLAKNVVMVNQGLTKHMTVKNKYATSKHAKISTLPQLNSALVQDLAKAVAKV

scytonemin
IC50 [1]: ~3000 nM
reduction of GST-PLK1 activity ([2]; 3 μM SCY): about 58%
time dependence of GST-PLK1 inhibition ([2]; 3 μM and 10 μM, preincubation 0, 15, 30, 45 minutes): not time dependent
reduction of GST-PLK1 activity ([2]; 10 μM SCY): about 93%
IC50 ([2]; 10 μM unlabelled ATP, 60 minutes at 37° C., IC50±S.E.M., read-out: IC50 for inhibition of GST-PLK1 phosphorylation of GST-cdc25C): 1950 ± 70 nM
Ki ([2]; ATP competition, read-out: Ki when fitted as an uncompetitive inhibitor): 2300 ± 1900 nM
Ki ([2]; ATP competition, read-out: Ki when fitting the data as a competitive inhibitor): 3000 ± 1900 nM
mechanism of inhibition of GST-PLK1 ([2]; ATP competition, double-reciprocal plot): mixed inhibitor
GST-cdc25C phosphorylation by GST-PLK1 (phosphorimage) ([2]; in the presence of 10 μM SCY): virtually no phosphorylated GST-cdc25C detectable
